In patent US6087361A, “Aryl-imidazolines and aryl-imidazoles useful as α-2 adrenergic agonists without cardiovascular side effects” (Allergan Sales, Inc., priority 1997, dated 2000):

Target: I1 imidazoline receptor
Assay: I1 imidazoline receptor binding assay, 3H-clonidine, bovine VLM membranes
Settings: 25° C., 50 min
Experimental: Fresh bovine brain stems were obtained from a local slaughter house. After removal of pia-arachnoid, the medulla was isolated by dissecting the brain stem about 1 cm posterior and 1 cm caudal to the obex. The ventral quadrants of the medulla excluding the pyramids were used as the VLM. For each preparation, 30 to 40 VLM were used. Initial homogenization was performed in 20 volumes of 5 mM HEPES buffer (pH 7.4 at 4° C.) containing 250 mM sucrose, 50 uM Calpain I inhibitor (Boehginer Mannheim, Indianapolis, Ind.), 100 uM 1,10-phenanthroline (Sigma, St. Louis, Mo.) and 50 uM Pefabloc (Boehginer Mannheim, Indianapolis, Ind.), using Virtis homogenizer at setting 7 with three 10 second pulses, followed by three passes in a teflon-glass tissue homogenizer. The inhibitors were added to prevent degradation by proteases and peptidases. The homogenates were then centrifuged at 1000× g for 10 min and the resulting pellets were re-homogenized and centrifuged. Supernatants resulted from both runs were combined and centrifuged for 20 min at 48000× g. The pellets obtained were resuspended in a teflon-glass homogenizer in 50 mM Tris-HCl with 5 mM EDTA (pH 7.7 at 4° C.), centrifuged, and resuspended in 50 mM Tris-HCl with 25 mM NaCl, pH 7.7 at room temp. To remove endogenous ligands, the homogenate was incubated 30 min at room temp before it was centrifuged for 20 min at 48000× g. The pellets were then washed with 50 mM Tris-HCl buffer, (pH 7.4 at 4° C.) and loaded on top of 5 mM HEPES/0.85 M sucrose (pH 7.4 at 4° C.). Pellets obtained after centrifugation at 48000× g for 20 min were saved. The fatty connective tissue on the top layer was discarded. The partially purified VLM membrane pellets were then washed twice with 50 mM Tris-HCl, pH 7.7 at 4° C., flash frozen in dry ice/acetone slush, and stored at -100° C. until use. Receptor binding experiments were performed within days after the membrane preparation.
I1 imidazoline receptor binding affinity was determined from radioligand binding of ^3 H-clonidine (NEN, Boston, Mass.) to bovine VLM membranes. Specific activity of ^3 H-clonidine was 43 Ci/mmol. Kd of ^3 H-clonidine binding to the I1 imidazoline receptor was determined by saturation experiments and Ki of other ligands studied were determined by competition experiments. The radioligand binding assay was performed in Teflon 96-wells with the Biomek-1000 robotics (Beckman Instruments, Fullerton, Calif.). Each well contained […] ^3 H-Clonidine and 0.3 to 0.5 mg of bovine VLM protein in 5 mM HEPES buffer containing 0.5 mM EGTA and 0.5 mM MgCl2, pH 7.4 (0.1 mM ascorbic acid was added just before the protein). After 50 min of incubation at 25° C., the reaction was terminated by rapid filtration over Whatman GF/B filters treated with 0.1% polyethyleneimine and washed with 12 ml ice cold 50 mM Tris-HCl, pH 7.4 at 4° C. in a Brandel Harvester (Brandel, Gaithersburg, Md.). Both `hot` and `cold` saturation experiments were performed. In `hot` saturation experiments, studies were performed with ^3 H-clonidine ranging from 0.1 to 50 nM. In `cold` saturation experiments, studies were performed with 2 nM ^3 H-clonidine with 20 different concentrations of the unlabeled clonidine, ranging from 0.1 nM to 1 uM unlabeled clonidine. Non specific binding was defined by parallel incubations containing 10^-5 M phentolamine or naphazoline. Imidazoline binding was determined by parallel incubations in which the alpha-adrenergic sites were masked with 10^-5 M norepinephrine. During competition experiments, ligands of 20 concentrations ranged from 10^-11 to 10^-4 were used. Radioactivity was counted in a Beckman LS-3801 scintillation counter. Data were captured and analyzed with Accufit saturation and competition softwares modeled both for one-site and two-site fits (Beckman Instruments, Fullerton, Calif.) using an IBM compatible computer. All experiments were repeated at least twice.

SMILES | Ki
Cc1ccccc1NC1=NCCN1 [Example 1] | 12 nM
Nc1cc(Cl)c(NC2=NCCN2)c(Cl)c1 [Example 3] | 19 nM
c1cc2c(cc1NC1=NCCN1)NCCN2 [Example 7] | 1990 nM
Cc1c(NC2=NCCN2)ccc2c1NCCN2 [Example 8] | 100000 nM
Brc1c(NC2=NCCN2)ccc2c1NCCN2 [Example 9] | 4580 nM
CC1CNc2c(ccc(NC3=NCCN3)c2Br)N1 (stereo not drawn) [Example 10] | 3950 nM
c1cc2c(cc1NC1=NCCN1)OCCO2 [Example 11] | 1840 nM
COc1ccc(NC2=NCCN2)c(C)c1OC [Example 12] | 340 nM
Cc1c(NC2=NCCN2)ccc2c1OCCO2 [Example 13] | 831 nM
O=C1COc2ccc(NC3=NCCN3)cc2N1 [Example 14] | 11600 nM

The next lines start with the values.

Ki | SMILES
100000 nM | Cc1c(NC2=NCCN2)ccc2c1NC(=O)CO2 [Example 15]
7110 nM | Cc1c(NC2=NCCN2)ccc2c1NCCO2 [Example 16]
19 nM | Cc1cccc(Nc2ncc[nH]2)c1C [Example 18]
412 nM | Cc1c(O)cccc1Nc1ncc[nH]1 [Example 20]
4320 nM | COc1c(C(C)(C)C)cc(C)c(Nc2ncc[nH]2)c1C [Example 22]
